Reference: patent publication US11980616B2, “Treating liver disease by selectively eliminating senescent cells” (Buck Institute for Research on Aging, priority 2014, dated 2024)

Legend:
[1] = tested on: non-senescent IMR90 cells; assay: Cell counting assay, non-senescent IMR90; type: cell-based, human; conditions: 3 μM, 24 hour exposure
Procedure: (§1) To determine whether ABT-263 is selectively toxic to senescent cells compared to non-senescent cells, a cell counting assay was used to determine cell survival following treatment with ABT-263. […] Each condition was seeded in three wells and counted independently. Cells were counted after a 24 hour exposure to ABT-263 (or control culture).

[2] = tested on: senescent IMR90 cells (Sen(IR) IMR90); assay: Cell counting assay, senescent IMR90; type: cell-based, human; conditions: 3 μM, 24 hour exposure
Procedure: as §1

[3] = tested on: non-senescent IMR90 cells; assay: CellTiter-Glo cell viability assay, non-senescent IMR90; type: cell-based; conditions: Homo sapiens, IMR-90, 72 h; non-senescent IMR90, 3 days
Procedure: (§2) To determine whether ABT-263 is selectively toxic to senescent cells compared to non-senescent cells, a cell viability assay was used to assess cell survival following treatment with ABT-263. IMR90 cells (human primary lung fibroblasts (IMR90) (IMR-90 (ATCC® CCL-186™, Manassas, Virginia) were seeded in six well plates, and cells were induced to senescence with 10 Gy of ionizing radiation (IR) (Day 0). The media was refreshed every 3 days. The senescent phenotype is allowed to develop for 7 days at which point a cell count was made to determine the baseline number of cells followed by seeding into 96-well plates. On day 8, the senescent cells (irradiated) and the non-senescent cells (the non-radiated cells), were exposed to serial dilutions of ABT-263 for a period of 3 days. ABT-263 concentrations ranged from 0.5 nM to 3 μM. Each condition was seeded in triplicate.
(§3) After three days of treatment (Day 11), cells were assayed for cell survival using the commercially available CellTiter-Glo® (CTG) Luminescent Cell Viability Assay (Promega Corporation, Madison, Wisconsin). The assay determines the number of viable cells in culture based on the quantitation of ATP present which is an indicator of metabolically active cells.
The experiments performed for assessing the effect of these other Bcl-2 inhibitors were performed essentially as described in Example 7. […]

senescent IMR90 cells = assay: CellTiter-Glo cell viability assay, senescent IMR90; type: cell-based, human
Procedure: as §2, §3
The experiments performed for assessing the effect of these other Bcl-2 inhibitors were performed essentially as described in Example 7. Cells were exposed to ABT-199 at serial dilution concentrations ranging from 15 nM to 100 μM (FIGS. 26 and 27). Cells were exposed to Obatoclax at concentrations ranging from 1.4 nM to 9 μM (FIG. 28).
IMR90 cells were induced to senescence by irradiation as described in Example 7. The irradiated IMR90 cells and non-senescent IMR90 cells were then exposed to a compound called ML214 that is a Bcl-2A1 specific inhibitor.
The effect of ABT-263 in combination with the Akt inhibitor MK-2206 was tested for selective toxicity of senescent cells compared to non-senescent cells in IMR90 cells. The methods of Example 7 were repeated except that cell cultures were exposed to 10 nM MK-2206 (Selleckem, Cat #S1078) in addition to serial dilutions of ABT-263.

[4] = tested on: non-senescent Primary Renal Cortical Cells; assay: CellTiter-Glo cell viability assay, non-senescent renal epithelial cells; type: cell-based; conditions: 72 h, 3 days
Procedure: as §2, §3
(§4) The methods of Example 7 were repeated in other cell strains. […]

[5] = tested on: senescent Primary Renal Cortical Cells; assay: CellTiter-Glo cell viability assay, senescent renal epithelial cells; type: cell-based; conditions: 72 h, 3 days
Procedure: as §2, §3, §4

[6] = tested on: non-senescent HCA2 foreskin fibroblast cells; assay: CellTiter-Glo cell viability assay, non-senescent HCA2; type: cell-based; conditions: 72 h; non-senescent HCA2, 3 days
Procedure: as §2, §3, §4

[7] = tested on: senescent HCA2 foreskin fibroblast cells; assay: CellTiter-Glo cell viability assay, senescent HCA2; type: cell-based; conditions: 72 h; senescent HCA2, 3 days
Procedure: as §2, §3, §4

[8] = tested on: senescent IMR90 cells (IMR90 Sen(IR)); assay: Pan-caspase inhibitor (Q-VD-OPh) apoptosis assay in IMR90 cells; type: cell-based, human
Procedure: Lung fibroblast cell line IMR90 (human primary lung fibroblasts, ATCC® CCL-186™, Manassas, Virginia) were seeded in six-well plates and induced to senesce with 10 Gy of ionizing radiation (IR) as described in Example 12. After senescence was established, cells were re-seeded into 96 well plates. […] At the end of the assay time period, cells were counted. Each condition was seeded in three plate wells and counted independently. […] Cell survival was determined using the commercially available CellTiter-Glo® Luminescent Cell Viability Assay (Promega Corporation, Madison, Wisconsin). The assay determines the number of viable cells in culture based on the quantitation of ATP present which is an indicator of metabolically active cells.

[9] = tested on: 3MR or INK-ATTAC mice exposed to cigarette smoke; assay: Chronic cigarette smoke exposure model (COPD); type: in vivo, mouse; conditions: after 2 months of cigarette smoke exposure; vs untreated controls
Procedure: In a second animal model for pulmonary diseases (e.g., COPD), mice were exposed to cigarette smoke. The effect of a senolytic agent on the mice exposed to smoke is assessed by senescent cell clearance, lung function, and histopathology.
Six week-old 3MR (n=35) or INK-ATTAC (n=35) mice were chronically exposed to cigarette smoke generated from a Teague TE-10 system, an automatically-controlled cigarette smoking machine that produces a combination of side-stream and mainstream cigarette smoke in a chamber, which is transported to a collecting and mixing chamber where varying amounts of air is mixed with the smoke mixture. The COPD protocol was adapted from the COPD core facility at Johns Hopkins University (at Internet site web.jhu.edu/Biswal/exposure_core/copd.html#Cigarette_Smoke) (Rangasamy et al., 2004, J. Clin. Invest. 114:1248-1259; Yao et al., 2012, J. Clin. Invest. 122:2032-2045). Mice received a total of 6 hours of cigarette smoke exposure per day, 5 days a week for 6 months. Each lighted cigarette (3R4F research cigarettes containing 10.9 mg of total particulate matter (TPM), 9.4 mg of tar, and 0.726 mg of nicotine, and 11.9 mg carbon monoxide per cigarette [University of Kentucky, Lexington, KY]) was puffed for 2 seconds and once every minute for a total of 8 puffs, with the flow rate of 1.05 L/min, to provide a standard puff of 35 cm^3. The smoke machine was adjusted to produce a mixture of side stream smoke (89%) and mainstream smoke (11%) by smoldering 2 cigarettes at one time. The smoke chamber atmosphere was monitored for total suspended particulates (80-120 mg/m^3) and carbon monoxide (350 ppm). Beginning at day 7, (10) INK-ATTAC and (10) 3MR mice were treated with AP20187 (3× per week) or gancyclovir (5 consecutive days of treatment followed by 16 days off drug, repeated until the end of the experiment), respectively. An equal number of mice received the corresponding vehicle. The remaining […] (15 INK-ATTAC and 15 3MR) were evenly split with 5 of each genetically modified strain placed into three different treatment groups. One group (n=10) received Nutlin-3A (25 mg/kg dissolved in 10% DMSO/3% Tween-20 in PBS, treated 14 days consecutively followed by 14 days off drug, repeated until the end of the experiment). […]
After two months of cigarette smoke exposure, lung function was assessed by monitoring oxygen saturation using the MouseSTAT PhysioSuite pulse oximeter (Kent Scientific). […] Mice were monitored for 30 seconds and the average peripheral capillary oxygen saturation (SpO2) measurement over this duration was calculated.

[10] = tested on: p16-3MR mice treated with paclitaxel; assay: Voluntary exercise (wheel counts) after paclitaxel in p16-3MR mice; type: in vivo, mouse; conditions: ABT-263 100 mg/kg i.p. daily 7 days; ganciclovir 25 mg/kg i.p. daily 3 days
Procedure: The capability of a senolytic agent, such as ABT-263, to reduce chemotherapy related side effects, such as fatigue, was examined in p16-3MR transgenic mice. In addition to doxorubicin, paclitaxel also induces cellular senescence when administered to animals. See Example 2 for a description of the p16-3MR transgenic mouse model.
In this experiment, paclitaxel was administered to groups of p16-3mr mice (n=4) three times, every two days. Two days after the third dose of paclitaxel, ganciclovir was administered daily for three days (days 1, 2, and 3) intraperitoneally at 25 mg/kg. ABT-263 (100 mg/kg) was administered intraperitoneally daily for seven days after paclitaxel administration. Two days after the last dose of ABT-263, all groups of animals were housed in metabolic cages (promethion, sable systems international, Las Vegas, NV) to monitor voluntary exercise as determined by wheel counts. Data were collected and analyzed two days later. Clearance of senescent cells by ABT-263 and ganciclovir restored approximately 70% of wheel count reduction caused by chemotherapy treatment.

With CC1(C)CCC(c2ccc(Cl)cc2)=C(CN2CCN(c3ccc(C(=O)NS(=O)(=O)c4ccc(N[C@H](CCN5CCOCC5)CSc5ccccc5)c(S(=O)(=O)C(F)(F)F)c4)cc3)CC2)C1 [ABT-263, 4-[4-[[2-(4-chlorophenyl)-5,5-dimethylcyclohexen-1-yl]methyl]piperazin-1-yl]-N-[4-[[(2R)-4-morpholin-4-yl-1-phenylsulfanylbutan-2-yl]amino]-3-(trifluoromethylsulfonyl)phenyl]sulfonylbenzamide] the “Percentage of survival of cells after 24 hours” value [1] was “absence of toxicity”, the “Cell counts relative to counts before treatment” value [2] was 28% and the IC50 [3] was 2400 nM. The IC50 (senescent IMR90 cells; Homo sapiens, IMR-90, 72 h, senescent IMR90, 3 days) was 140 nM, the “In vitro theoretical therapeutic index” value (senescent IMR90 cells; IMR90, non-senescent vs senescent IC50) was 17 and the IC50 [4] was 430 nM. It also gave an IC50 [5] of 25 nM, an IC50 [6] greater than 3000 nM and an IC50 [7] of 410 nM. The “Percent of surviving senescent cells in the presence of the pan-caspase inhibitor” value ([8]; 0.33 or 1 μM, 3 days, Q-VD-OPh 20 μM) was “increased”, the “Selective killing of senescent cells” value ([8]; IMR90, 3 days) was “selectively kills senescent cells” and the SpO2 levels [9] was “statistically significant increases”. For the same compound, the “Restoration of wheel count reduction caused by chemotherapy” value [10] was “approximately 70%”.
